Like-named read-outs stand apart in the source and are kept apart here.
Columns and labels:
[1] = tested on: T. cruzi amastigote (Tulahuen strain expressing β-galactosidase); assay: Intracellular T. cruzi assay in 3T3 cells (beta-galactosidase, 96 h); format: cell-based, Trypanosoma cruzi; conditions: for EC50: Trypanosoma cruzi, TULAHUEN, NIH3T3, 96 h, read-out: T. cruzi amastigote EC50
Method in brief: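 3T3 cells in phenol-red-free DMEM with 2% FBS were infected with Tulahuen β-galactosidase trypomastigotes, 5×10^4 per well, and exposed to compounds from 50 μM in 1:2 serial dilutions, in triplicate. After 96 h at 37°C, 5% CO2, 500 μM CPRG in PBS with 0.5% NP40 was added for 4 h; absorbance was read at 590–595 nm.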

[2] = tested on: T. b. brucei (strain 427); assay: T. b. brucei proliferation assay (PrestoBlue, 48 h); format: cell-based, Trypanosoma brucei brucei; conditions: Trypanosoma brucei
Method in brief: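 T. b. brucei strain 427, 2.5×10^3 per well in HMI-9, exposed to compounds from 50 μM in 1:2 dilutions, in triplicate. Incubated 48 h at 37°C, 5% CO2. PrestoBlue added for 4 h more, fluorescence read at ex 530/em 590 nm.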

[3] = Plasma and brain pharmacokinetics after single i.p. dose; format: in vivo; conditions: 10 mg/kg i.p., female BALB/c mice; for Kp: female, BALB/c, brain/plasma, 10 mg/kg
Protocol: PK parameters were measured for both brain and plasma following a single intraperitoneal (i.p.) dose of 10 mg/kg (see Supplementary information, S5 and S6 Tables).
Table S5. Pharmacokinetic parameters of NEU-1060 (compound 14) in plasma and brain following a single intraperitoneal administration in female BALB/c mice (Dose:
Compound Dose Route Matrix Tmax Cmax AUClast AUCinf […]
*The density of brain homogenate was considered as 1 which is equivalent to plasma density (1); Brain conc. and exposure expressed as ng/g and hr.ng/g, respectively.
NC – not calculated due to improper elimination phase
Table S6. Brain to plasma exposure ratio of NEU-1060 (compound 14) after a single intraperitoneal administration in female BALB/c mice (Dose: 10 mg/kg)
Compound Dose Route Matrix Cmax Cmax AUClast Brain to plasma
(mg/kg) (ng/mL) ratio (hr*ng/mL) exposure ratio

[4] = Human plasma protein binding; format: in vitro ADME; conditions: read-out: Human PPB (converted)
NIH/3T3 cells = assay: Drug toxicity to 3T3 cells (Alamar Blue, 96 h); format: cell-based
HepG2 cells = assay: Drug toxicity to HepG2 cells (MTT, 48 h); format: cell-based, human; conditions: tested concentration ranges based on compound solubility
Method in brief: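 HepG2 cells plated overnight, then exposed 48 h to twelve 1.6-fold dilutions (57–10,000 ng/mL) in duplicate at 37° C, 5% CO2. MTT added for 1 h at room temperature; formazan dissolved in acidified isopropanol, absorbance read.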

Structure (SMILES) | EC50 [1] [µM] | SI (T. cruzi) ([1]; selectivity index calculated relative to 3T3 cells) | EC50 [2] [nM] | Brain to plasma exposure ratio ([3]; AUClast based, listed as NEU-1060, 10 mg/kg) | AUClast ([3]; brain) [ng·h/g] | Kp ([3]; mouse, ip, AUClast based, read-out: Brain to plasma exposure ratio) | Kp ([3]; mouse, ip, brain to plasma, read-out: Cmax ratio) | Cmax ([3]; mouse, ip, brain) [ng/g] | Tmax ([3]; mouse, ip, brain) [h] | AUC(0-t) ([3]; mouse, ip, plasma) [ng·h/mL] | Cmax ([3]; mouse, ip, plasma) [ng/mL] | Tmax ([3]; mouse, ip, plasma) [h] | fraction unbound [4] | 3T3 TC50 (NIH/3T3 cells) [µM] | HepG2 TC50 (HepG2 cells) [µM]
CN1CCN(c2ncc(-c3ccc4c(Nc5ccc(OCc6cccc(F)c6)c(Cl)c5)ccnc4c3)cn2)CC1 [Compound 14] | 0.09 | 170 | 6 | 7.43 | 3474.83 | 7.4 | 2.85 | 211 | 4 | 468 | 74 | 0.25 | < 0.01 | – | –
CN1CCN(c2ncc(-c3ccc4c(Nc5cnccn5)ccnc4c3)cn2)CC1 [Compound 22] | 6 | – | – | – | – | – | – | – | – | – | – | – | – | 34 | > 38

Source: paper PMC6283615, “Anilinoquinoline based inhibitors of trypanosomatid proliferation” (PLoS Neglected Tropical Diseases, 2018)
